The values that follow come from US12287322B2, “Composition for detecting hydrogen sulfide or measuring hydrogen sulfide concentration and composition comprising same as effective ingredient for diagnosing or imaging in vivo inflammation, tissues having hypoxic damage, or cancer” (SEOUL NATIONAL UNIVERSITY R&DB FOUNDATION, priority 2018, dated 2025).

The test system of test [1] is reperfused brain after middle cerebral artery occlusion. The experiment in a line: Autoradiography of brain reperfused after middle cerebral artery occlusion. The class given is in vivo, mouse. The following applies: 2 hours occlusion, 12 hours recovery, 1 mCi tail vein, brain extracted after 1 hour, compared with TTC staining, FIG. 11.
Test [2] relates to inflamed tissue where hydrogen sulfide was generated (carrageenan hind paw). The experiment in a line: SPECT-CT imaging of carrageenan-inflamed tissue where hydrogen sulfide is produced. The class given is in vivo. The following applies: mouse, 300 μCi tail vein 4 hours after 1% carrageenan, SPECT-CT after 1 hour, FIG. 10. On the procedure:
It has been reported that hydrogen sulfide was generated in the inflamed tissue induced by the administration of carrageenan (Li L, Bhatia M, Zhu Y Z, et al. FASEB J. (2005) 19:1196-1198; Bhatia M, Sidhapuriwala J, Moochhala S M, et al. Br J Pharmacol. (2005) 145:141-144.). Accordingly, the following experiment was performed to confirm whether the imaging of the inflamed tissue where hydrogen sulfide was generated was possible when the ^99mTc-alpha-hydroxy acid according to the present invention was administered.
30 μL of physiological saline containing 1% carrageenan was injected into the right hind paw of a mouse, and 30 μL of physiological saline was injected into the left hind paw of the mouse.

A short description of test [3]: Reaction of ^99mTc-alpha-hydroxy acid with sodium sulfite, insoluble substances by ITLC. The following applies: 0.4 mM sodium sulfite in 0.2 M sodium phosphate buffer pH 7.4, 37° C., 15 minutes. On the procedure: (§1) Particularly, the ^99mTc-alpha-hydroxy acid prepared in Example 1 was diluted 5 times with physiological saline, and then 100 μL of each diluent was taken, to which 100 μL of each of 0.2 M sodium phosphate buffer (pH 7.4) containing 0.4 mM NaHS, 4 mM glutathione, 0.4 mM cysteine, 0.4 mM sodium sulfite, 0.4 mM sodium sulfate, 0.4 mM sodium thiosulfate, and 0.4 mM NONOate (NO generating reagent) was added, followed by reaction at 37° C. for 15 minutes. Then, ITLC was developed with physiological saline to determine the percentage of the radioactivity remaining at the origin.

Test [4] can be described thus: Reaction of ^99mTc-alpha-hydroxy acid with sodium thiosulfate, insoluble substances by ITLC. The following applies: 0.4 mM sodium thiosulfate in 0.2 M sodium phosphate buffer pH 7.4, 37° C., 15 minutes. On the procedure:
as §1

Test [5] can be described thus: Reaction of ^99mTc-alpha-hydroxy acid with glutathione, insoluble substances by ITLC. The following applies: 4 mM glutathione in 0.2 M sodium phosphate buffer pH 7.4, 37° C., 15 minutes. On the procedure:
as §1

Test [6] can be described thus: Reaction of ^99mTc-alpha-hydroxy acid with sodium sulfate, insoluble substances by ITLC. The following applies: 0.4 mM sodium sulfate in 0.2 M sodium phosphate buffer pH 7.4, 37° C., 15 minutes. On the procedure: as §1
Test [7] can be described thus: Reaction of ^99mTc-alpha-hydroxy acid with NO (NONOate), insoluble substances by ITLC. The following applies: 0.4 mM NONOate in 0.2 M sodium phosphate buffer pH 7.4, 37° C., 15 minutes. On the procedure:
as §1

Test [8] in a line: Reaction of ^99mTc-alpha-hydroxy acid with cysteine, insoluble substances by ITLC. The following applies: 0.4 mM cysteine in 0.2 M sodium phosphate buffer pH 7.4, 37° C., 15 minutes. On the procedure: as §1
A short description of test [9]: ^99mTc-alpha-hydroxy acid in phosphate buffer alone, insoluble substances by ITLC. The following applies: 0.2 M sodium phosphate buffer pH 7.4 alone, 37° C., 15 minutes. On the procedure: as §1
The nature of test [10]: Reaction of ^99mTc-alpha-hydroxy acid with NaHS, insoluble substances by ITLC. The following applies: 0.4 mM NaHS in 0.2 M sodium phosphate buffer pH 7.4, 37° C., 15 minutes; radioactivity at origin, ITLC saline. The source says:
Then, ITLC was developed with physiological saline to determine the percentage of the radioactivity remaining at the origin.

A further test concerns hydrogen sulfide in paw. The experiment in a line: Hydrogen sulfide concentration in inflamed area (DMPD/FeCl3, absorbance 665 nm). The class given is in vivo. The following applies: mouse paw, 4 hours after 30 μL 1% carrageenan, n=3. Here is the method: In order to confirm that the concentration of hydrogen sulfide in the inflamed area was higher than the concentration of hydrogen sulfide in the normal area, it was measured as follows using a method described in the literature (A D Ang, A Konigstorfer, G I Giles, M Bhatia. Adv Biol Chem, 2012, 2:360-365). After 4 hours, the mouse was euthanized with carbon dioxide gas, and the ankle was cut and the weight was measured. 500 μL of 50 mM sodium carbonate buffer (pH 9) chilled with ice was added thereto and homogenized for 30 seconds gently, 1 minute 30 seconds moderately, and 30 seconds vigorously. After centrifugation at 1200×g for 5 minutes, the supernatant was obtained, to which 400 μL of a mixed solution of 350 μL of 1% zinc acetate and 50 μL of 1.5 M sodium hydroxide was added, followed by mixing well. After centrifugation at 1200×g for 5 minutes, the supernatant was discarded. To the precipitated pellet, 1 mL of distilled water saturated with nitrogen was added, which was mixed by vortexing for 1 minute. After centrifugation at 1200×g for 5 minutes, the supernatant was discarded. […] After reacting at room temperature for 15 minutes, absorbance was measured at 665 nm. A standard quantification curve was drawn with a standard sample measured by the same method, and then quantified.

`OC[C@H]1OC(O)[C@H]([18F])[C@@H](O)[C@@H]1O` (stereo partly shown) [[^18F] FDG, reference compound]: the “distribution of radioactivity in brain sections” value in test [1] is recorded as “almost overlapped with the red area stained by TTC”.

On to `O=C1[O][99Tc-]2(=[O])([O]C(=O)C(C(O)C(O)C(O)C(O)CO)[O]2)[O]C1C(O)C(O)C(O)C(O)CO` (stereo not shown) [^99mTc-glucoheptonate], for which the “radioactivity of the inflamed area versus area administered with physiological saline” value in [2] is given as “clearly higher”.

As for `O=C1[O][99Tc-]2(=[O])([O]C(=O)[C@@H]([C@@H](O)[C@H](O)[C@H](O)CO)[O]2)[O][C@@H]1[C@@H](O)[C@H](O)[C@H](O)CO` [^99mTc-gluconate], the “percentage of insoluble substances produced after reaction with Sodium sulfite” value (“percentage … with Sodium sulfite” for short) in [3] is reported as 6.4 ± 0.7%. The “distribution of radioactivity in brain sections” value in [1] is “ingested at the boundary area rather than completely dead brain tissues and the normal brain tissues”. In addition, in [4], the “percentage of insoluble substances produced after reaction with Thiosodium sulfate” value (“percentage … with Thiosodium sulfate” for short) is given as 6.5 ± 1.0%. Besides, in test [5], the “percentage of insoluble substances produced after reaction with Glutathione” value (“percentage … with Glutathione” for short) is 12.0 ± 2.4%. Also, the “percentage of insoluble substances produced after reaction with Sodium sulfate” value (from here on “percentage … with Sodium sulfate”) in test [6] was 7.9 ± 1.5%. Further, the “percentage of insoluble substances produced after reaction with NO” value (“percentage … with NO” for short) in [7] was determined as 6.1 ± 1.0%. In addition, the “percentage of insoluble substances produced after reaction with Cysteine” value (“percentage … with Cysteine” for short) in [8] worked out at 5.1 ± 0.6%. Besides, the “radioactivity of the inflamed area versus area administered with physiological saline” value in [2] is “clearly higher”. Besides, the “percentage of insoluble substances produced in Buffer” value (shortened to “percentage … in Buffer”) in test [9] came to 8.7 ± 1.8%.

In the case of ^99mTc-citrate, the “percentage … with Sodium sulfite” value in test [3] worked out at 7.8 ± 0.7%. Moreover, the “percentage of insoluble substances produced after reaction with NaHS” value in [10] is reported as 8.3±1.0%. Further, the “percentage … with Thiosodium sulfate” value in test [4] is reported as 5.5 ± 0.1%. In addition, in [5], the “percentage … with Glutathione” value is 7.5 ± 1.7%. Besides, in [6], the “percentage … with Sodium sulfate” value is reported as 8.0 ± 0.5%. The “percentage … with NO” value in [7] is 5.6 ± 0.4%. Also, the “percentage … with Cysteine” value in test [8] is 2.1 ± 0.2%. The “percentage … in Buffer” value in [9] came out at 4.0 ± 0.1%.

For ^99mTc-glucarate, in [3], the “percentage … with Sodium sulfite” value was 5.5 ± 0.8%. Moreover, the “percentage of insoluble substances produced after reaction with NaHS” value in test [10] came out at 37.0±4.7%. In addition, in test [4], the “percentage … with Thiosodium sulfate” value was 5.6 ± 0.3%. The “percentage … with Glutathione” value in [5] is given as 13.4 ± 2.7%. Further, the “percentage … with Sodium sulfate” value in test [6] stood at 4.6 ± 0.5%. Also, the “percentage … with NO” value in test [7] amounted to 4.7 ± 0.7%. In addition, the “percentage … with Cysteine” value in [8] amounted to 6.4 ± 1.7%. For the same molecule, the “percentage … in Buffer” value in test [9] amounted to 4.6 ± 0.5%.

Regarding carrageenan, the “concentration of hydrogen sulfide in the paws” value in the test on hydrogen sulfide in paw stood at 43.7 ± 3.5 µM.
